Literature values as cited in patent US20140248345A1 (Merck Sharp & Dohme Corp., priority 2011, published 2014).

Test system: human Type 2 diabetics
Conditions: oral administration

## N#C[C@@H]1CCCN1C(=O)CNC12CC3CC(CC(O)(C3)C1)C2 [vildagliptin, (S)-1-[(3-hydroxy-1-adamantyl)amino]acetyl-2-cyano-pyrrolidine]
  HbA1c levels: significantly reduced
  fasting glucose and postprandial glucose excursion: reduce fasting glucose and postprandial glucose excursion

## N[C@@H](CC(=O)N1CCn2c(nnc2C(F)(F)F)C1)Cc1cc(F)c(F)cc1F [sitagliptin, (2R)-4-oxo-4-[3-(trifluoromethyl)-5,6-dihydro[1,2,4]triazolo[4,3-a]pyrazin-7(8H)-yl]-1-(2,4,5-trifluorophenyl)butan-2-amine]
  HbA1c levels: significantly reduced
  fasting glucose and postprandial glucose excursion: reduce fasting glucose and postprandial glucose excursion
